Data reported in ChEMBL document CHEMBL1201861, “Genomics of Drug Sensitity in Cancer screening data, Wellcome Trust Sanger Institute”.

These molecules were tested on LAN-6 (assay: cells). Conditions: Homo sapiens, LAN-6.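 Note: growth inhibition of LAN-6 cells, determined with a cell viability assay.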
Type: functional, cell-based, Homo sapiens
Description: SANGER: Inhibition of human LAN-6 cell growth in a cell viability assay.
For `CC1(C)CNc2cc(NC(=O)c3cccnc3NCc3ccncc3)ccc21` [MOTESANIB], the IC50 was > 2000 nM.

What follows are molecules tested on SNB-75 (assay: cells). Conditions: Homo sapiens, SNB-75.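 Note: cell viability assay measuring growth inhibition of human SNB-75 cells.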
Type: functional, cell-based, Homo sapiens
Description: SANGER: Inhibition of human SNB75 cell growth in a cell viability assay.
With `CC1(C)CNc2cc(NC(=O)c3cccnc3NCc3ccncc3)ccc21` [MOTESANIB] the IC50 was > 2000 nM.

Each molecule was assayed on ML-2 (assay: cells). Conditions: Homo sapiens, ML-2.
Type: functional, cell-based, Homo sapiens
Description: SANGER: Inhibition of human ML-2 cell growth in a cell viability assay.
For `CC1(C)CNc2cc(NC(=O)c3cccnc3NCc3ccncc3)ccc21` [MOTESANIB], the IC50 was > 2000 nM.

What follows are molecules tested on MHH-NB-11 (assay: cells). Conditions: Homo sapiens, MHH-NB-11.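 Note: growth inhibition of human MHH-NB-11 cells, read out by a cell viability assay.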
Type: functional, cell-based, Homo sapiens
Description: SANGER: Inhibition of human MHH-NB-11 cell growth in a cell viability assay.
With `CC1(C)CNc2cc(NC(=O)c3cccnc3NCc3ccncc3)ccc21` [MOTESANIB] the IC50 was > 2000 nM.

The molecules below were run on LB1047-RCC (assay: cells). Conditions: Homo sapiens, LB1047-RCC.
Type: functional, cell-based, Homo sapiens
Description: SANGER: Inhibition of human LB1047-RCC cell growth in a cell viability assay.
For `CC1(C)CNc2cc(NC(=O)c3cccnc3NCc3ccncc3)ccc21` [MOTESANIB], the IC50 was > 2000 nM.

These molecules were tested on SK-UT-1 (assay: cells). Conditions: Homo sapiens, SK-UT-1.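 Note: growth inhibition of SK-UT-1 cells, measured by a cell viability assay.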
Type: functional, cell-based, Homo sapiens
Description: SANGER: Inhibition of human SK-UT-1 cell growth in a cell viability assay.
In the case of `CC1(C)CNc2cc(NC(=O)c3cccnc3NCc3ccncc3)ccc21` [MOTESANIB], the IC50 is reported as > 2000 nM.

These molecules were tested on NB69 (assay: cells). Conditions: Homo sapiens, NB69.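 Note: growth inhibition of NB69 cells, determined by a cell viability assay.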
Type: functional, cell-based, Homo sapiens
Description: SANGER: Inhibition of human NB69 cell growth in a cell viability assay.
For `CC1(C)CNc2cc(NC(=O)c3cccnc3NCc3ccncc3)ccc21` [MOTESANIB], the IC50 was > 2000 nM.

What follows are molecules tested on VA-ES-BJ (assay: cells). Conditions: Homo sapiens, VA-ES-BJ.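 Note: growth inhibition of the VA-ES-BJ cell line, read out by a cell viability assay.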
Type: functional, cell-based, Homo sapiens
Description: SANGER: Inhibition of human VA-ES-BJ cell growth in a cell viability assay.
In the case of `CC1(C)CNc2cc(NC(=O)c3cccnc3NCc3ccncc3)ccc21` [MOTESANIB], the IC50 is reported as > 2000 nM.

What follows are molecules tested on RPMI-8866 (assay: cells). Conditions: Homo sapiens, RPMI-8866.
Type: functional, cell-based, Homo sapiens
Description: SANGER: Inhibition of human RPMI-8866 cell growth in a cell viability assay.
With `CC1(C)CNc2cc(NC(=O)c3cccnc3NCc3ccncc3)ccc21` [MOTESANIB] the IC50 was > 2000 nM.

What follows are molecules tested on ES1 (assay: cells). Conditions: Homo sapiens, ES1.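 Note: growth inhibition of ES1 cells, read out with a cell viability assay.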
Type: functional, cell-based, Homo sapiens
Description: SANGER: Inhibition of human ES1 cell growth in a cell viability assay.
In the case of `CC1(C)CNc2cc(NC(=O)c3cccnc3NCc3ccncc3)ccc21` [MOTESANIB], the IC50 is reported as > 2000 nM.

What follows are molecules tested on NKM-1 (assay: cells). Conditions: Homo sapiens, NKM-1.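 Note: growth inhibition of NKM-1 cells, read out with a cell viability assay.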
Type: functional, cell-based, Homo sapiens
Description: SANGER: Inhibition of human NKM-1 cell growth in a cell viability assay.
With `CC1(C)CNc2cc(NC(=O)c3cccnc3NCc3ccncc3)ccc21` [MOTESANIB] the IC50 was > 2000 nM.

These molecules were tested on SW872 (assay: cells). Conditions: Homo sapiens, SW872.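 Note: growth inhibition of SW872 cells, read out by a viability assay.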
Type: functional, cell-based, Homo sapiens
Description: SANGER: Inhibition of human SW872 cell growth in a cell viability assay.
For `CC1(C)CNc2cc(NC(=O)c3cccnc3NCc3ccncc3)ccc21` [MOTESANIB], the IC50 was > 2000 nM.

These molecules were tested on SNU1 (assay: cells). Conditions: Homo sapiens, SNU1.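 Note: growth inhibition of human NCI-SNU-1 cells, measured with a cell viability assay.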
Type: functional, cell-based, Homo sapiens
Description: SANGER: Inhibition of human NCI-SNU-1 cell growth in a cell viability assay.
For `CC1(C)CNc2cc(NC(=O)c3cccnc3NCc3ccncc3)ccc21` [MOTESANIB], the IC50 was > 2000 nM.

These molecules were tested on COLO-800 (assay: cells). Conditions: Homo sapiens, COLO-800.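 Note: growth inhibition of COLO-800 cells, read out with a cell viability assay.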
Type: functional, cell-based, Homo sapiens
Description: SANGER: Inhibition of human COLO-800 cell growth in a cell viability assay.
For `CC1(C)CNc2cc(NC(=O)c3cccnc3NCc3ccncc3)ccc21` [MOTESANIB], the IC50 was > 2000 nM.

The molecules below were run on LXF-289 cell line (assay: cells). Conditions: Homo sapiens, LXF-289.
Type: functional, cell-based, Homo sapiens
Description: SANGER: Inhibition of human LXF-289 cell growth in a cell viability assay.
`CC1(C)CNc2cc(NC(=O)c3cccnc3NCc3ccncc3)ccc21` [MOTESANIB] was tested, and the IC50 was > 2000 nM.

Each molecule was assayed on CTV-1 (assay: cells). Conditions: Homo sapiens, CTV-1.
Type: functional, cell-based, Homo sapiens
Description: SANGER: Inhibition of human CTV-1 cell growth in a cell viability assay.
With `CC1(C)CNc2cc(NC(=O)c3cccnc3NCc3ccncc3)ccc21` [MOTESANIB] the IC50 was > 2000 nM.

Each molecule was assayed on A253 cell line (assay: cells). Conditions: Homo sapiens, A253.
Type: functional, cell-based, Homo sapiens
Description: SANGER: Inhibition of human A253 cell growth in a cell viability assay.
`CC1(C)CNc2cc(NC(=O)c3cccnc3NCc3ccncc3)ccc21` [MOTESANIB] was tested, and the IC50 was > 2000 nM.

These molecules were tested on TGBC24TKB (assay: cells). Conditions: Homo sapiens, TGBC24TKB.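 Note: growth inhibition of human TGBC24TKB cells, read out with a cell viability assay.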
Type: functional, cell-based, Homo sapiens
Description: SANGER: Inhibition of human TGBC24TKB cell growth in a cell viability assay.
For `CC1(C)CNc2cc(NC(=O)c3cccnc3NCc3ccncc3)ccc21` [MOTESANIB], the IC50 was > 2000 nM.

The molecules below were run on 697 (assay: cells). Conditions: Homo sapiens.
Type: functional, cell-based, Homo sapiens
Description: SANGER: Inhibition of human 697 cell growth in a cell viability assay.
In the case of `CC1(C)CNc2cc(NC(=O)c3cccnc3NCc3ccncc3)ccc21` [MOTESANIB], the IC50 is reported as > 2000 nM.

These molecules were tested on ES7 (assay: cells). Conditions: Homo sapiens, ES7.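 Note: growth inhibition of cultured human ES7 cells, read out as cell viability.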
Type: functional, cell-based, Homo sapiens
Description: SANGER: Inhibition of human ES7 cell growth in a cell viability assay.
`CC1(C)CNc2cc(NC(=O)c3cccnc3NCc3ccncc3)ccc21` [MOTESANIB] was tested, and the IC50 was > 2000 nM.

Each molecule was assayed on NCI-H1648 (assay: cells). Conditions: Homo sapiens, NCI-H1648.
Type: functional, cell-based, Homo sapiens
Description: SANGER: Inhibition of human NCI-H1648 cell growth in a cell viability assay.
With `CC1(C)CNc2cc(NC(=O)c3cccnc3NCc3ccncc3)ccc21` [MOTESANIB] the IC50 was 686 nM.

Each molecule was assayed on TE-12 (assay: cells). Conditions: Homo sapiens, TE-12.
Type: functional, cell-based, Homo sapiens
Description: SANGER: Inhibition of human TE-12 cell growth in a cell viability assay.
`CC1(C)CNc2cc(NC(=O)c3cccnc3NCc3ccncc3)ccc21` [MOTESANIB] was tested, and the IC50 was > 2000 nM.

These molecules were tested on no-11 (assay: cells). Conditions: Homo sapiens.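 Note: growth inhibition of human NO-11 cells, read out with a cell viability assay.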
Type: functional, cell-based, Homo sapiens
Description: SANGER: Inhibition of human no-11 cell growth in a cell viability assay.
For `CC1(C)CNc2cc(NC(=O)c3cccnc3NCc3ccncc3)ccc21` [MOTESANIB], the IC50 was > 2000 nM.

What follows are molecules tested on MHH-PREB-1 (assay: cells). Conditions: Homo sapiens, MHH-PREB-1.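 Note: cell viability assay measuring inhibition of proliferation of human MHH-PREB-1 cells.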
Type: functional, cell-based, Homo sapiens
Description: SANGER: Inhibition of human MHH-PREB-1 cell growth in a cell viability assay.
With `CC1(C)CNc2cc(NC(=O)c3cccnc3NCc3ccncc3)ccc21` [MOTESANIB] the IC50 was > 2000 nM.

What follows are molecules tested on LS-123 (assay: cells). Conditions: Homo sapiens, LS-123.
Type: functional, cell-based, Homo sapiens
Description: SANGER: Inhibition of human LS-123 cell growth in a cell viability assay.
With `CC1(C)CNc2cc(NC(=O)c3cccnc3NCc3ccncc3)ccc21` [MOTESANIB] the IC50 was > 2000 nM.

Each molecule was assayed on EOL1 (assay: cells). Conditions: Homo sapiens, EOL1.
Type: functional, cell-based, Homo sapiens
Description: SANGER: Inhibition of human EoL-1-cell cell growth in a cell viability assay.
With `CC1(C)CNc2cc(NC(=O)c3cccnc3NCc3ccncc3)ccc21` [MOTESANIB] the IC50 was < 7.81 nM.

Each molecule was assayed on U-266 (assay: cells). Conditions: Homo sapiens, U-266.
Type: functional, cell-based, Homo sapiens
Description: SANGER: Inhibition of human U-266 cell growth in a cell viability assay.
For `CC1(C)CNc2cc(NC(=O)c3cccnc3NCc3ccncc3)ccc21` [MOTESANIB], the IC50 was > 2000 nM.

What follows are molecules tested on EW-18 (assay: cells). Conditions: Homo sapiens, EW-18.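 Note: growth inhibition of EW-18 cells, read out by a cell viability assay.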
Type: functional, cell-based, Homo sapiens
Description: SANGER: Inhibition of human EW-18 cell growth in a cell viability assay.
With `CC1(C)CNc2cc(NC(=O)c3cccnc3NCc3ccncc3)ccc21` [MOTESANIB] the IC50 was > 2000 nM.

The molecules below were run on TE-8 (assay: cells). Conditions: Homo sapiens, TE-8.
Type: functional, cell-based, Homo sapiens
Description: SANGER: Inhibition of human TE-8 cell growth in a cell viability assay.
`CC1(C)CNc2cc(NC(=O)c3cccnc3NCc3ccncc3)ccc21` [MOTESANIB] was tested, and the IC50 was > 2000 nM.

Each molecule was assayed on BB49-HNC (assay: cells). Conditions: Homo sapiens, BB49-HNC.
Type: functional, cell-based, Homo sapiens
Description: SANGER: Inhibition of human BB49-HNC cell growth in a cell viability assay.
For `CC1(C)CNc2cc(NC(=O)c3cccnc3NCc3ccncc3)ccc21` [MOTESANIB], the IC50 was > 2000 nM.

Each molecule was assayed on CCRF-CEM (assay: cells). Conditions: Homo sapiens, CCRF-CEM.
Type: functional, cell-based, Homo sapiens
Description: SANGER: Inhibition of human CCRF-CEM cell growth in a cell viability assay.
With `CC1(C)CNc2cc(NC(=O)c3cccnc3NCc3ccncc3)ccc21` [MOTESANIB] the IC50 was > 2000 nM.

Each molecule was assayed on HDLM-2 (assay: cells). Conditions: Homo sapiens, HDLM-2.
Type: functional, cell-based, Homo sapiens
Description: SANGER: Inhibition of human HDLM-2 cell growth in a cell viability assay.
In the case of `CC1(C)CNc2cc(NC(=O)c3cccnc3NCc3ccncc3)ccc21` [MOTESANIB], the IC50 is reported as > 2000 nM.

What follows are molecules tested on DSH1 (assay: cells). Conditions: Homo sapiens, DSH1.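 Note: growth inhibition of human DSH1 cells, measured with a cell viability readout.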
Type: functional, cell-based, Homo sapiens
Description: SANGER: Inhibition of human DSH1 cell growth in a cell viability assay.
For `CC1(C)CNc2cc(NC(=O)c3cccnc3NCc3ccncc3)ccc21` [MOTESANIB], the IC50 was > 2000 nM.

These molecules were tested on COLO-684 (assay: cells). Conditions: Homo sapiens, COLO-684.
Type: functional, cell-based, Homo sapiens
Description: SANGER: Inhibition of human COLO-684 cell growth in a cell viability assay.
In the case of `CC1(C)CNc2cc(NC(=O)c3cccnc3NCc3ccncc3)ccc21` [MOTESANIB], the IC50 is reported as > 2000 nM.

Each molecule was assayed on SW982 (assay: cells). Conditions: Homo sapiens, SW982.
Type: functional, cell-based, Homo sapiens
Description: SANGER: Inhibition of human SW982 cell growth in a cell viability assay.
With `CC1(C)CNc2cc(NC(=O)c3cccnc3NCc3ccncc3)ccc21` [MOTESANIB] the IC50 was > 2000 nM.

What follows are molecules tested on GT3TKB (assay: cells). Conditions: Homo sapiens, GT3TKB.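 Note: growth inhibition of the cell line, read out with a cell viability assay.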
Type: functional, cell-based, Homo sapiens
Description: SANGER: Inhibition of human GT3TKB cell growth in a cell viability assay.
With `CC1(C)CNc2cc(NC(=O)c3cccnc3NCc3ccncc3)ccc21` [MOTESANIB] the IC50 was > 2000 nM.

What follows are molecules tested on ONS-76 (assay: cells). Conditions: Homo sapiens, ONS-76.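 Note: growth inhibition of human ONS-76 cells, read out with a cell viability assay.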
Type: functional, cell-based, Homo sapiens
Description: SANGER: Inhibition of human ONS-76 cell growth in a cell viability assay.
With `CC1(C)CNc2cc(NC(=O)c3cccnc3NCc3ccncc3)ccc21` [MOTESANIB] the IC50 was > 2000 nM.

The molecules below were run on TGBC1TKB (assay: cells). Conditions: Homo sapiens, TGBC1TKB.
Type: functional, cell-based, Homo sapiens
Description: SANGER: Inhibition of human TGBC1TKB cell growth in a cell viability assay.
For `CC1(C)CNc2cc(NC(=O)c3cccnc3NCc3ccncc3)ccc21` [MOTESANIB], the IC50 was > 2000 nM.

The molecules below were run on KLE (assay: cells). Conditions: Homo sapiens, KLE.
Type: functional, cell-based, Homo sapiens
Description: SANGER: Inhibition of human KLE cell growth in a cell viability assay.
In the case of `CC1(C)CNc2cc(NC(=O)c3cccnc3NCc3ccncc3)ccc21` [MOTESANIB], the IC50 is reported as > 2000 nM.

The molecules below were run on SF-126 (assay: cells). Conditions: Homo sapiens, SF-126.
Type: functional, cell-based, Homo sapiens
Description: SANGER: Inhibition of human SF126 cell growth in a cell viability assay.
`CC1(C)CNc2cc(NC(=O)c3cccnc3NCc3ccncc3)ccc21` [MOTESANIB] was tested, and the IC50 was > 2000 nM.

These molecules were tested on COLO-668 (assay: cells). Conditions: Homo sapiens, COLO-668.
Type: functional, cell-based, Homo sapiens
Description: SANGER: Inhibition of human COLO-668 cell growth in a cell viability assay.
With `CC1(C)CNc2cc(NC(=O)c3cccnc3NCc3ccncc3)ccc21` [MOTESANIB] the IC50 was > 2000 nM.

Each molecule was assayed on COLO-829 (assay: cells). Conditions: Homo sapiens, COLO-829.
Type: functional, cell-based, Homo sapiens
Description: SANGER: Inhibition of human COLO-829 cell growth in a cell viability assay.
In the case of `CC1(C)CNc2cc(NC(=O)c3cccnc3NCc3ccncc3)ccc21` [MOTESANIB], the IC50 is reported as > 2000 nM.

What follows are molecules tested on GB-1 (assay: cells). Conditions: Homo sapiens, GB-1.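 Note: growth of GB-1 cells judged by a viability assay, IC50 marks the concentration inhibiting growth.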
Type: functional, cell-based, Homo sapiens
Description: SANGER: Inhibition of human GB-1 cell growth in a cell viability assay.
With `CC1(C)CNc2cc(NC(=O)c3cccnc3NCc3ccncc3)ccc21` [MOTESANIB] the IC50 was > 2000 nM.

The molecules below were run on KNS-81-FD (assay: cells). Conditions: Homo sapiens, KNS-81-FD.
Type: functional, cell-based, Homo sapiens
Description: SANGER: Inhibition of human KNS-81-FD cell growth in a cell viability assay.
In the case of `CC1(C)CNc2cc(NC(=O)c3cccnc3NCc3ccncc3)ccc21` [MOTESANIB], the IC50 is reported as > 2000 nM.

The molecules below were run on SCC-15 (assay: cells). Conditions: Homo sapiens, SCC-15.
Type: functional, cell-based, Homo sapiens
Description: SANGER: Inhibition of human SCC-15 cell growth in a cell viability assay.
In the case of `CC1(C)CNc2cc(NC(=O)c3cccnc3NCc3ccncc3)ccc21` [MOTESANIB], the IC50 is reported as > 2000 nM.
